Earlier results on 20 molecules are cited in paper PMC5601361, “Targeting the Receptor for Advanced Glycation Endproducts (RAGE): A Medicinal Chemistry Perspective” (Journal of Medicinal Chemistry, 2017).

“Also recorded” adds a separate entry of the source. Read-outs that look alike come from different tables or passages of the source.

For series [1], the system named is diabetic mice. The arrangement: method as in PMID 18245563, PMID 26807573, PMID 14568011.
Series [2] has as its system sRAGE.
Series [3] has as its system human brain tissue. The arrangement: method as in PMID 26771209.
Details of series [4]: method as in PMID 26771209.
Details of series [5]: method as in PMID 26771209. The source holds these as a separate data set.
In series [6] the target is human sRAGE. Further details: method as in PMID 22406537. Particulars: V domain, read-out: affinity for RAGE (Kd).
Series [7] concerns APPswe/PS1 mice.
In series [8] the test system is RAGE-overexpressing SH-SY5Y cells.
The test system of series [9] is Aβ. The arrangement: method as in PMID 26899576. Particulars: 50 μM.
Series [10] deals with human RAGE. Further details: method as in PMID 22742537, PMID 24727489. As to conditions: SPR. (In general: In SPR one partner is held on a chip, and binding of the other changes the refractive index at the surface.)
In series [11] the test system is wild-type mice. Further details: method as in PMID 22742537, PMID 24727489. As to conditions: given prior to human Aβ administration, 3 ip, 7 iv 25 mg/kg.
The subject of series [12] is C6 glioma cells. Further details: method as in PMID 22742537. Particulars: in vitro; 3 at 10 μM.
Series [13] relates to human RAGE-Aβ1–42. Particulars: ELISA on human RAGE-Aβ1–42; for inhibitory activity compared with another compound: at 20 μM.
Series [14] deals with rats. Further details: method as in PMID 25757085, PMID 20223279.
On the set-up of series [15]: method as in PMID 25533401.
Series [16] concerns immune-deficient mice implanted with cancer cells. The arrangement: method as in PMID 22718861. As to conditions: ip delivery.
Series [17] deals with pancreatic cancer cell lines. The arrangement: method as in PMID 22718861. As to conditions: several cancer cell lines.
The target in series [18] is human sRAGE. The arrangement: method as in PMID 24824951. As to conditions: V domain; read-out: affinity for RAGE (Kd).
The target of series [19] is human RAGE. The arrangement: method as in PMID 22493510, PMID 21347371. As to conditions: SPR on human RAGE.
Series [20] relates to tumor cell. Further details: method as in PMID 23421467. As to conditions: in vitro and in vivo.
In series [21] the test system is Wistar rats treated with AGEs. Further details: method as in PMID 26738988. As to conditions: ip 1 mg/kg/day for 4 weeks.
Series [22] concerns APPsw/0 mice.
For series [23], the system named is aortas of aged rats. The arrangement: method as in PMID 25160740.
Series [24] has as its system sRAGE. The source holds these as a separate data set.
Series [25] deals with RAGE-transfected CHO cells.
Series [26] relates to LLC and B16 melanoma cells. Further details: method as in PMID 22493510, PMID 21347371. Particulars: single preadministration.
Series [27] addresses rat and mouse sRAGE. Further details: method as in PMID 7592757. As to conditions: VC1C2.
Where [28] appears, read: read-out: IC50, interaction of sRAGE to CML.
Setting [29] is: read-out: IC50, interaction of sRAGE to S110B.
The mark [30] stands for this setting: read-out: IC50, interaction of sRAGE to amyloid β.

Regarding `C[C@H](CCC(=O)O)[C@H]1CC[C@H]2[C@@H]3[C@@H](O)C[C@@H]4C[C@H](O)CC[C@]4(C)[C@H]3CC[C@]12C` [ursodeoxycholic acid], the antiatherogenic activity entry in [1] was “antiatherogenic activity”.

One may read the IC50 as the concentration that gives 50% inhibition. Consider `CCCCn1c([C@@H](Cc2ccc(OCCc3ccc(Cl)cc3)cc2)NC(=O)OC(C)(C)C)nc2cc(OCCCN(CC)CC)ccc21` [Compound 11], for which the IC50 in [2] (setting [28]), in series [2] (setting [29]) and in series [2] (setting [30]) was below 0.5 µM each time.

Regarding `O=C(c1ccc([18F])cc1)N(Cc1ccccc1)C1CCCCC1` [[^18F]13], the “uptake in frontal cortex of AD compared with healthy control tissue” value in [3] is “higher uptake”. Besides, in series [4], the “metabolism in rat liver microsomes” value is recorded as “rapidly metabolized”. In [5], the “time of peak after iv injection” value was at most 3 min and the “washout over the PET scan” value is “virtually complete washout”. For the same molecule, in series [5] (iv injection), the “nonspecific binding in vivo” value is “significant nonspecific binding to the white matter”.

As a reminder, the Kd is the constant that tells how readily two partners part at equilibrium. Consider “β amyloid: β amyloid peptide, RAGE ligand”, for which the Kd in series [6] (listed as 125I-labeled Aβ1–40) was 0.075 µM; in series [6], 0.07 to 0.08 µM.

Take `O=C1CCC[C@@H]2[C@H]3CCCN4CCC[C@@H](CN12)[C@@H]34` [Compound 14, matrine, reference compound]: in [7] (ip 100 mg/kg), the “brain Aβ, NF-κB, BACE1 levels” value was “reduces”; the “proinflammatory cytokines (TNF-α and IL-1β)” value is on record as “downregulates”. In addition, the “transport across the BBB” value in series [7] (ip 100 mg/kg, AD transgenic mice) is recorded as “is transported across the BBB”. Moreover, the Aβ-induced cytotoxicity entry in series [8] is listed as “inhibits Aβ-induced cytotoxicity”. The “RAGE-Aβ signaling pathway (NF-κB and BACE1 expression levels)” value in series [8] (50 μM) is “decrease of NF-κB and BACE1 expression levels”. Further, in series [8] (in vitro and in vivo), the “Aβ1–42, NF-κB, BACE1 and cytokines” value was “• reduced Aβ1–42, NF-κB, BACE1 and cytokines (in vitro and in vivo)”. Moreover, the “Aβ aggregation or fibrillation” value in series [9] was “prevents Aβ aggregation or fibrillation”.

On to `CCN(CC)CCOc1cccc(Nc2nc(-c3ccc(Cl)cc3)cc(-c3ccc(Cl)cc3)n2)c1` [Compound 3], for which the Kd in [10] is 102 µM. The “concentration of toxic soluble Aβ in the brain” value in series [7] (oral 50 mg/kg per day for up to three months) is on record as “significantly lowered”. For the same molecule, the “Aβ brain entry / accumulation in the brain” value (“Aβ brain entry / accumulation” below) in series [11] (25 mg/kg) was “inhibited Aβ brain entry; also recorded: • inhibition of Aβ accumulation in the brain (in vivo)”. Further, the “Aβ-induced NF-κB signaling” value in [12] is given as “down-regulation; also recorded: • downregulation of Aβ-induced NF-κB (in vitro)”. The IC50 in [13] is 16.5 µM.

Take `O=C(O)c1cccnc1C(=O)O` [quinolinic acid]: the “neuronal death in the striatum” value in series [14] is listed as “dose-dependent neuronal death in the striatum”.

Take `CCN(CC)CCOc1ccc(OC)cc1NC(=O)c1nc(-c2ccc(F)cc2)cc(-c2ccc(F)cc2)n1` [Compound 6]: in series [13], the “inhibitory activity compared with another compound” value is on record as “superior RAGE inhibition than 3”.

As for `CCCCOc1cc(OCCCN(CC)CC)ccc1NC(=O)c1cc(-c2ccc(Oc3ccc(F)cc3)cc2)nn1C` [Compound 7], the Kd in series [10] was 43.4 µM. The “Aβ brain entry / accumulation” value in series [11] is given as “reduce Aβ entry in the brain”.

In the case of `CN(C)C1CCN(CCOc2cccc(Nc3nc(-c4ccc(Cl)cc4)cc(-c4ccc(Cl)cc4)n3)c2)C1` (stereo not drawn) [Compound 5], the “solubility compared to 3” value in series [15] is given as “improved”. In addition, the “inhibitory activity compared with another compound” value in series [13] was “improved RAGE-Aβ1–42 inhibition”.

“ELKVLMEKEL [Compound 19, RAGE antagonistic peptide developed from the structure of S100P]”: the “tumor growth, metastasis and inflammation” value in series [16] is “reduction of tumor growth, metastasis, and inflammation”. Moreover, the “RAGE activation of NF-κB, inflammation, tumor growth and metastasis” value in [17] was “reduced; also recorded: inhibition of NF-κB, inflammation, tumor growth and metastasis”.

Turning to “methylglyoxal-derived hydroimidazolones [MG-H]”, in [18], the Kd is 0.03 to 0.04 µM.

Take heparin [Compound 17]: the Kd in series [19] was 0.0031 µM. Further, the “tumor cell growth, migration, invasion and distant metastasis” value in [20] was “inhibited tumor cell growth, migration, invasion, and distant metastasis”.

As to `O=C(c1ccc(Cl)cc1)N(Cc1ccccc1)C1CCCCC1` [Compound 12, N-Benzyl-N-cyclohexyl-4-chlorobenzamide], the BBB permeability result is recorded as “acceptable BBB permeability”. In [21], the “Aβ expression and APP production, NF-κB-mediated Aβ production, inflammatory response, ROS and lipid peroxidation” value was “reduction”; the antioxidant enzyme activity entry was “increased”. Also, in series [22], the “Aβ1–40 and Aβ1–42 levels in brain (cortex, hippocampus)” value was “reducing their levels in the cortex and the hippocampus; also recorded: • reduced Aβ1–40 and Aβ1–42 levels in brain”; the “RAGE actions at the BBB and in the brain” value was “• blocked RAGE actions at the BBB and in the brain”; the “RAGE-mediated influx of circulating Aβ1–40 and Aβ1–42 into the brain” value is “inhibited; also recorded: • inhibition of Aβ influx in the brain (in vivo)”; the “binding specificity in the CNS” value was “bound exclusively to RAGE”. Also, the “neuronal oxidative stress, microglia activation, neuroinflammation” value in [22] was “reduced Aβ-induced RAGE-dependent oxidative stress in neurons, suppressed microglia activation, and neuroinflammation”. Also, the “cognitive performance and cerebral blood flow” value in series [22] (aged APPsw/0 mice) was “• normalized cognitive performance and cerebral blood flow in aged APPsw/0 mice”. Besides, the “soluble APP β protein, p65, NF-κB and BACE1 mRNA levels in cortex and hippocampus” value in series [22] (ip 1 mg/kg daily for 2 months) is reported as “reduced”. For the same molecule, the dose not toxic entry in series [22] (ip, 15–17-month-old APPsw/0 mice) was “up to 500 mg/kg”. Besides, in [23], the GSH/GSSG ratio entry was “increased”; the “malondialdehyde and ROS production” value is listed as “reduced”. Besides, in series [24], the “binding to immobilized Aβ” value is reported as “did not bind”. In series [24] (in vitro), the “Aβ1–40, Aβ1–42, S100B, HMGB1 binding to RAGE” value was “• inhibited Aβ1–40, Aβ1–42, S100B, HMGB1 binding to RAGE (in vitro)”. Further, the “toxicity in RAGE-transfected CHO cells” value in series [25] (10 μM) is recorded as “nontoxic”. Moreover, the “cytotoxicity / toxicology profile in vitro and in vivo” value in series [25] (cell culture and rodents) was “good toxicology profile; also recorded: • low cytotoxicity in vitro and in vivo”. The “Aβ1–40-induced NF-κB activation, BACE1 expression, cytokines” value in [25] (in vitro and in vivo) was “• reduced Aβ1–40-induced NF-κB activation, BACE1 expression, cytokines (in vitro and in vivo)”. The “RAGE-mediated cellular oxidative stress, BACE1 mRNA, BACE1 activity, nuclear NF-κB levels” value in series [25] (induced by Aβ1–40 and Aβ1–42) is given as “reduced”.

In the case of heparan sulfate [Compound 16], the Kd in series [19] is 0.0006 µM. Moreover, the “lung colonization by tumor cells” value in series [26] is “suppressed”.

Regarding `CCN(CC)CCOc1ccccc1Nc1nc(-c2ccc(Cl)cc2)cc(-c2ccc(Cl)cc2)n1` [Compound 4], the “Aβ brain entry / accumulation” value in [11] is “• inhibition of Aβ accumulation in the brain (in vivo)”. In [12], the “Aβ-induced NF-κB signaling” value was “• downregulation of Aβ-induced NF-κB (in vitro)”. In [13], the IC50 is 4.6 µM.

Take chondroitin sulfate E [Compound 15]: in series [19], the Kd was 0.0002 µM. In addition, the “lung colonization by tumor cells” value in [26] is listed as “suppressed”.

As to `CCCCOc1cc(OCCCN(CC)CC)ccc1NC(=O)C(CC1CCN(Cc2ccccc2)CC1)NC(=O)OCC1c2ccccc2-c2ccccc21` (stereo not drawn) [Compound 10], the half-inhibitory concentration (IC50) in series [2] (setting [28]), in [2] (setting [29]) and in series [2] (setting [30]) was below 0.5 µM each time.

On to “HMGB1 (amphoterin): high mobility group box 1, cytokine-type RAGE ligand”, for which the “affinity for RAGE (Kd)” value in series [27] was “low nanomolar range”. Moreover, the Kd in [27] (read-out: affinity for RAGE (Kd)) is 0.006 to 0.01 µM.

As for `CC1NC(NCCC[C@H](N)C(=O)O)=NC1=O` (stereo partly drawn) [MG-H1, methylglyoxal-derived hydroimidazolone-1], the Kd in [18] was 0.04 µM.
